Converted amounts (≈) assume the structure as drawn. Where two headings read alike, the source gives them in different places. A value given as a limit tells only on which side of the number the result lay.

Type in all cases: cell-based
In experiment [1] the test system is Staphylococcus aureus biofilms. Briefly: Static biofilm model, viable counts. As to conditions: NRS 1 (VISA) and NRS 384 (VSSA) biofilms; 24 hours; vancomycin 32 μg/mL (21 μM) alone or with ALAFAC. Here is the method:
Static Biofilm Model. Staphylococci were grown in TSB to mid-logarithmic phase (OD600=0.5), washed, and resuspended in fresh pre-warmed medium to a density of 2×10^4 CFU in 500 μl volume, and suspensions were used to seed polystyrene 24-well plates. Bacteria were cultured at 37° C. for 12 hours, after which biofilms were washed with PBS to eliminate planktonic bacteria and were exposed to TSB with indicated concentrations of ALAFAC and/or antibiotics for 24 hours at 37° C. Biofilms were then washed in PBS, sonicated and detached by scraping the surface in the presence of 100 μL PBS followed by a rinse with 100 μL PBS. Collected cells were vortexed twice for 20 seconds at high speed and the dispersed biofilm cells were first observed by microscopy to ensure proper dispersion and then diluted in a 10-fold dilution series where 100 μl of each dilution was plated on blood agar plates to determine viable CFUs per ml after overnight growth at 37° C. Colony counts from plates carrying 20-200 colonies were used to determine the viable counts and are reported as the total number of colony-forming units per biofilm.

For experiment [2], the system named is Staphylococcus aureus. Briefly: Minimal bactericidal concentration (MBC) from MIC plates. The conditions noted are these: Staphylococcus aureus. The source says: The MBC was defined as the lowest concentration of antimicrobials yielding colony counts <0.1% (3 log10 reduction) of the initial inoculum (as determined by colony counts from the growth control well immediately after inoculation) as described.

For experiment [3], the system named is Staphylococcus aureus. Briefly: MIC by broth microdilution, antibiotics with and without ALAFAC. As to conditions: Staphylococcus aureus. The protocol: (§1) Methodology: Minimal inhibitory concentrations (MICs) were determined in 96-well microtiter plates using the microdilution method according to approved standards of the CLSI except that Todd-Hewitt medium supplemented with 0.5% yeast extract, which yields reproducible MIC results was used as the test medium for S. pneumoniae. For the remaining species Mueller-Hinton medium was used as indicated by the CLSI standard. Each well contained two-fold dilutions of antibiotic, was seeded with a final bacterial concentration of 10^5 CFU/mL, and was incubated for 18 h at 37° C. in a Synergy II microplate reader (Biotek, Winooski, Vt.) where the OD600 was recorded every 5 minutes to monitor bacterial growth. The MIC was defined as the lowest concentration of antimicrobial agent solution at which no increase in OD600 was detected.
In vitro susceptibility tests. Minimal inhibitory concentrations (MICs) were determined in 96-well microtiter plates using the microdilution method according to approved standards of the CLSI as described previously. However, rather than Mueller-Hinton broth, Tryptic soy broth (TSB) was used for susceptibility testing as it is the common media used for Staphylococcal growth, and as it has shown more consistent results for a variety of antimicrobials when tested against Staphylococci. […] A two-fold dilution series of antibiotics in triplicate and in the presence or absence of ALAFAC was prepared in 96 well microtiter plates, and each well was seeded with a final bacterial concentration of 10^5 CFU/mL, and was incubated for 24 h at 37° C. in a Synergy 2 microplate reader (Biotek, Winooski, Vt.) where the Optical Density at 600 nm (OD600) was recorded every 5 minutes to monitor bacterial growth. The MIC was defined as the lowest concentration of antimicrobial agent solution where no increase in OD600 was detected.
(In general: Broth dilution looks for growth in wells or tubes with falling amounts of substance.)

Experiment [4] relates to Streptococcus pneumoniae biofilms. Kind of experiment: Static biofilm model, viable counts. The conditions noted are these: for Minimum antibiotic concentration for bactericidal (>3 log10) activity on biofilms: within 4-6 hours, antibiotic alone. The protocol: Methodology: Pneumococci were grown statically in CDM and S. aureus were grown in trypic soy medium to mid-logarithmic phase (OD600=0.5), washed, and resuspended in fresh pre-warmed medium to a density of 2×10^4 CFU in 500 μl volume, and suspensions were used to seed sterile round glass coverslips in the bottom of polystyrene 24-well plates with or without a substratum of confluent H292 epithelial cells. Biofilms were cultured at 34° C. in 5% CO2 for indicated times with change of culture media every 12 hours and to assess biomass and antibiotic resistance by viable counts (as described).
Biofilms were then washed in PBS and detached by scraping the surface in the presence of 100 μL PBS followed by a rinse with 100 μL PBS. Collected cells were sonicated in a sonication water bath for 2 s followed by vortexing twice for 20 seconds at high speed and the dispersed biofilm cells were used to determine viable CFUs per ml from diluted samples plated and grown on blood agar.
Static Biofilm Model. Pneumococci were grown in CDM to mid-logarithmic phase (OD600=0.5), washed, and resuspended in fresh pre-warmed medium to a density of 2×10^4 CFUs in 500 μl volume, and suspensions were used to seed sterile round glass coverslips in the bottom of polystyrene 24-well plates with a substratum of confluent H292 epithelial cells as described. Biofilms were cultured at 34° C. in 5% CO2 for indicated times with change of culture media every 12 hours and used for SEM studies or to assess biomass and antibiotic resistance by viable plate counts.
Biofilms were then washed in PBS, dispersed by sonication, and collected by pipetting in 100 μL PBS followed by a rinse with 100 μL PBS. Collected cells were then vortexed twice for 20 seconds at high speed and the dispersed biofilm cells were used to determine viable CFUs per ml from diluted samples plated and grown on blood agar. Results are reported as the total number of CFUs per biofilm.

Experiment [5] has as its system Streptococcus pneumoniae. Kind of experiment: MIC by broth microdilution, antibiotics with and without ALAFAC. As to conditions: Streptococcus pneumoniae, agent alone, read-out: MIC. The protocol:
as §1
In vitro susceptibility tests. Minimal inhibitory concentrations (MICs) were determined in 96-well microtiter plates using the microdilution method according to approved standards of the CLSI except that Todd-Hewitt medium supplemented with 0.5% yeast extract, which yields reproducible MIC results was used as the test medium for S. pneumoniae. MICs for A. baumanni, and M. catarrhalis were determined in MH media. Two-fold dilutions of a starting antibiotic concentration was added in triplicate into microtiter plate wells (in 96-well plates), were seeded with a final bacterial concentration of ˜10^5 colony forming units (CFU)/mL, and was incubated for 18 h in ambient air at 37° C. in a Synergy II microplate reader (Biotek, Winooski, Vt.) where the OD600 was recorded every 5 minutes to monitor bacterial growth. The MIC was defined as the lowest concentration of antimicrobial agent solution at which no increase in OD600 was detected.

In experiment [6] the test system is Streptococcus pneumoniae. Kind of experiment: Short-time kill assay on planktonic cultures. The conditions noted are these: for Minimum antibiotic concentration for bactericidal (>3 log10) activity, planktonic: within 4-6 hours, antibiotic alone. Here is the method: Methodology: In late logarithmic growth phase, the bacteria were harvested by centrifugation at 12,000×g for 10 minutes and resuspended in phosphate-buffered saline (PBS; […], […], […], pH 7.4). Appropriate dilutions of the bacteria were suspended in PBS and treated with indicated concentrations of ALAFAC and/or antibiotics for various times. The effect on bacterial viability was assessed by plating serial dilutions of bacterial sample on tryptic soy agar plates containing 5% sheep blood (viable counts) and determining viable colony forming units after overnight growth at 37° C.
Short-time kill assays. In late logarithmic growth phase, the bacteria were harvested by centrifugation at 12,000×g for 10 minutes and resuspended in phosphate-buffered saline (PBS; 30 mM Na2HPO4, 10 mM KH2PO4, […], pH 7.4). Appropriate concentrations of the bacteria (around 10^8 colony forming units per ml) were suspended in PBS and treated with indicated concentrations of ALAFAC and/or antibiotics for various times. The effect on bacterial viability was assessed by plating serial dilutions of bacterial sample on tryptic soy agar plates containing 5% sheep blood (viable counts) and determining viable CFUs after overnight growth at 37° C.

As for `CN[C@H](CC(C)C)C(=O)N[C@H]1C(=O)N[C@@H](CC(N)=O)C(=O)N[C@H]2C(=O)N[C@H]3C(=O)N[C@H](C(=O)N[C@H](C(=O)O)c4cc(O)cc(O)c4-c4cc3ccc4O)[C@H](O)c3ccc(c(Cl)c3)Oc3cc2cc(c3O[C@@H]2O[C@H](CO)[C@@H](O)[C@H](O)[C@H]2O[C@H]2C[C@](C)(N)[C@H](O)[C@H](C)O2)Oc2ccc(cc2Cl)[C@H]1O` [Vancomycin, vancomycin], in experiment [1], the Biofilm killing result is given as “almost complete insensitivity”. The MBC in the experiment on Staphylococcus aureus [2] (NRS1) was found to be 32 µg/mL (≈ 22.1 µM); in the experiment with Staphylococcus aureus [2] (NRS384) it was 16 µg/mL (≈ 11 µM). Besides, the MIC in the experiment with Staphylococcus aureus [3] (NRS1) stood at 8 µg/mL; in the experiment with Staphylococcus aureus [3] (NRS384), 1 µg/mL.
Take `CC[C@H]1OC(=O)[C@H](C)[C@@H](O[C@H]2C[C@@](C)(OC)[C@@H](O)[C@H](C)O2)[C@H](C)[C@@H](O[C@@H]2O[C@H](C)C[C@H](N(C)C)[C@H]2O)[C@](C)(O)C[C@@H](C)C(=O)[C@H](C)[C@@H](O)[C@]1(C)O` [Erythromycin, erythromycin]: the Biofilm killing entry in experiment [4] (D39 48 h biofilm (8.7 log10), erythromycin 500 μg/ml alone or with 250 μg/ml ALAFAC) is “no bactericidal effects”. The “Minimum antibiotic concentration for bactericidal (>3 log10) activity on biofilms” value in experiment [4] (S. pneumoniae D39 biofilm) and in experiment [4] (S. pneumoniae JY53 biofilm) was more than 1000 μg/ml throughout. In addition, the minimal bactericidal concentration (MBC) is 16 µg/mL (≈ 21.8 µM) with Staphylococcus aureus [2] (NRS123, S. aureus NRS123, antibiotic alone, read-out: MBC) and more than 256 µg/mL in the experiment on Staphylococcus aureus [2] (NRS384, S. aureus NRS384, antibiotic alone, read-out: MBC). The MIC amounted to 0.5 µg/mL with Staphylococcus aureus [3] (S. aureus NRS123, antibiotic alone, read-out: MIC); 16 µg/mL with Staphylococcus aureus [3] (S. aureus NRS384, antibiotic alone, read-out: MIC); 0.03 µg/mL with Streptococcus pneumoniae [5] (S. pneumoniae D39); 3 µg/mL in the experiment on Streptococcus pneumoniae [5] (S. pneumoniae JY53 (erythromycin-resistant)). Further, the Short-time killing entry with Streptococcus pneumoniae [6] (D39, 4 hours, ALAFAC 50 μg/ml, erythromycin 200 μg/ml, alone or combined, 7.2 log10 inoculum) is on record as “insignificant bactericidal activity”. Moreover, the Bactericidal activity alone result in the experiment on Streptococcus pneumoniae [6] (D39 and EF3030, 1 hour, penicillin G up to 5,000 μg/ml, erythromycin up to 1,000 μg/ml) is reported as “lacked any bactericidal activity”. In addition, the “Minimum antibiotic concentration for bactericidal (>3 log10) activity, planktonic” value in the experiment with Streptococcus pneumoniae [6] (S. pneumoniae D39) is on record as >1,000 μg/ml; in the experiment with Streptococcus pneumoniae [6] (S. pneumoniae JY53) it was more than 1000 μg/ml.

As a reminder, the MBC is the lowest tested concentration that kills the bacteria rather than only halting them. The MIC is the lowest concentration found to suppress growth.

The values above are taken from patent US9526766B2, “Potentiation of antibiotic treatment with a protein-lipid complex” (priority 2012, dated 2016).
